Results as given in patent US20220411381A1, “PYRIMIDINEDIONE DERIVATIVES” (Bayer Aktiengesellschaft, priority 2019, published 2022).
Read-outs that look alike come from different tables or passages of the source.

Key:
[1] = target: T1, recombinant human BCAT1 enzyme (Homo sapiens, UniProt P54687); test: In vitro assay 1a: BCAT1 biochemical assay (coupled LeuDH/NADH fluorescence readout)
T1 construct: purchased ATGen (South Korea) ATGP1479
T1 sequence (P54687 1-386): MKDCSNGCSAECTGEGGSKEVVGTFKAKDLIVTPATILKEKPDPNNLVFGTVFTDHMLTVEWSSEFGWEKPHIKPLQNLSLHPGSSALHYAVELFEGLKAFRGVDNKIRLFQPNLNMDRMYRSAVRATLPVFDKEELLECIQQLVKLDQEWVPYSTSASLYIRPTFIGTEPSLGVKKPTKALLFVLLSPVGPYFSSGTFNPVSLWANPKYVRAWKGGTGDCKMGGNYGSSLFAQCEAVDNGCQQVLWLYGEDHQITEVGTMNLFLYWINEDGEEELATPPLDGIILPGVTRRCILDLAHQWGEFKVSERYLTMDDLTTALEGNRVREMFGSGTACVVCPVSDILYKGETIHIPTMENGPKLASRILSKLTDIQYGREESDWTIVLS
Description: (§1) In Vitro Assay 1a and 1b: BCAT1 and BCAT2 Biochemical Assay
(§2) BOAT (Branched chain amino acid transferase) catalyzes transamination of the branched chain amino acid leucine to α-ketoisocaproate (KIC). The BOAT enzymatic reaction was measured in a coupled readout with leucine dehydrogenase (LeuDH) which catalyzes the Nicotinamide adenine dinucleotide (NADH) dependent reduction of KIC to leucine. NADH consumption is measured by fluorescent readout.
(§3) The biochemical reactions were performed at 32° C. in 384-well plates using a reaction volume of 51 μl and the following assay buffer conditions: 50 mM HEPES (2-[4-(2-hydroxyethyl)piperazin-1-yl]ethanesulfonic acid) pH 8.0, 50 mM aqueous solution of ammonium sulfate, 1 mM ethylenediaminetetraacetic acid, 2 mM dithiothreitol, 0.01% bovine serum albumine, 0.005% Brij 35 detergent, 0.5 μM PLP (pyridoxalphosphate), 10 μM NADH, and 50 μM α-ketoglutarate), and 100 μM leucine. […] Test compounds were used in a concentration range between 0.005 and 30 μM. The final DMSO concentration was 2%.
(§4) The reaction was initiated by addition of substrates (Leucine, α-KG, NADH).

[2] = target: T2, recombinant human BCAT2 enzyme (Homo sapiens, UniProt O15382); test: In vitro assay 1b: BCAT2 biochemical assay (coupled LeuDH/NADH fluorescence readout); for BCAT2 IC50 [M]: recombinant human BCAT2 0.75 nM
T2 construct: purchased ATGen (South Korea) ATGP1523
T2 sequence (O15382 28-392): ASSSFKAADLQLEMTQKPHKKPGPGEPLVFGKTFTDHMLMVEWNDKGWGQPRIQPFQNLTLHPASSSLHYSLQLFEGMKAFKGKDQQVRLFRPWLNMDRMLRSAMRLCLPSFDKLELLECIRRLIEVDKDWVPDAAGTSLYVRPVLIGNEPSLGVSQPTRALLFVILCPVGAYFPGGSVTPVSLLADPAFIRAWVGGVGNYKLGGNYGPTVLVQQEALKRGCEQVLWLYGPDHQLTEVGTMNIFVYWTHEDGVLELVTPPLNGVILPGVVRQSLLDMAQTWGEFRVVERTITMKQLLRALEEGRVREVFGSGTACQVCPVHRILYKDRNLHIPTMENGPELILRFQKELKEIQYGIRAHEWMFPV
Description: as §1, §2, §3, §4

[3] = system: MDA-MB231 cells; test: In vitro assay 2: BCAT cellular assay, leucine in medium of MDA-MB231 cells; assay type: cell-based; conditions: 24 hours incubation, leucine level in medium (LeuDH/diaphorase/resazurin readout), read-out: MDAMB-231 IC50
Description: (§5) In Vitro Assay 2: BCAT Cellular Assay
(§6) Levels of leucine were measured in medium of different tumor cell lines. The enzyme BOAT (Branched chain amino acid transferase) catalyzes the consumption of leucine.
(§7) Cells (U87-MG and MDA-MB231 from ATCC) were grown in Dulbecco's Modified Eagle Medium (DMEM) containing 10% fetal calf serum. They were harvested by trypsin and seeded into 96-well plates. Cells were incubated overnight at 37° C. in an atmosphere containing 5% carbon dioxide. The next day test compounds were added to each cell well. The final concentration of dimethylsulfoxide (DMSO) was 0.1% and DMSO controls were included. The plates were then placed in an incubator for 24 hours.
(§8) Leucine was measured in an enzymatic readout with leucine dehydrogenase (LeuDH) and diaphorase. Medium is deproteinized with perchloric acid. 30 μl of 1 M aqueous perchloric acid was added to each well and the plates were centrifuged.

[4] = system: U87-MG cells; test: In vitro assay 2: BCAT cellular assay, leucine in medium of U87-MG cells; assay type: cell-based; conditions: 24 hours incubation, leucine level in medium (LeuDH/diaphorase/resazurin readout)
Description: as §5, §6, §7, §8

[5] = recombinant human BCAT1 […], 32° C., 100 μM leucine, 50 μM α-ketoglutarate, NADH fluorescence over 90 min, read-out: BCAT1 IC50
[6] = recombinant human BCAT2 […], 32° C., 100 μM leucine, 50 μM α-ketoglutarate, NADH fluorescence over 90 min, read-out: BCAT2 IC50

SMILES | IC50 [1, 5] | IC50 [2, 6] | IC50 ([3]; Homo sapiens, MDA-MB-231, 24 h) | IC50 [3] | IC50 ([4]; Homo sapiens, U-87 MG, 24 h) | IC50 ([1]; BCAT1 IC50 [M]) | IC50 ([2]; BCAT2 IC50 [M]) | IC50 [4]
COc1cc(C#N)c(Oc2ccccc2C)cc1-n1c(=O)cc(Br)[nH]c1=O (racemic) [Example 19, 4-[4-Bromo-2,6-dioxo-3,6-dihydropyrimidin-1(2H)-yl]-5-methoxy-2-(2-methylphenoxy)benzonitrile (rac)] | 2e-07 M | 3.5e-06 M | > 30 µM |  |  |  |  | 
COc1cc(Cl)c(Oc2ccccc2C)cc1-n1c(=O)cc(C(F)(F)F)[nH]c1=O (racemic) [Example 27, 3-[4-Chloro-2-methoxy-5-(2-methylphenoxy)phenyl]-6-(trifluoromethyl)pyrimidine-2,4(1H,3H)-dione (rac)] | 4.38e-07 M | 4.33e-06 M | > 30 µM | 20 µM |  |  |  | 
COc1cc(Cl)c(Oc2ccccc2C)cc1-n1c(=O)cc(C(F)F)[nH]c1=O (racemic) [Example 28, 3-[4-Chloro-2-methoxy-5-(2-methylphenoxy)phenyl]-6-(difluoromethyl)pyrimidine-2,4(1H,3H)-dione (rac)] | 2.8e-07 M | 3.5e-06 M |  |  | 6.2 µM |  |  | 
COc1cc(C#N)c(Oc2ccccc2C)cc1-n1c(=O)cc(-c2ccccc2)[nH]c1=O (racemic) [Example 42, 4-(2,6-Dioxo-4-phenyl-3,6-dihydropyrimidin-1(2H)-yl)-5-methoxy-2-(2-methylphenoxy)benzonitrile (rac)] | 7.25e-07 M | 1e-05 M | > 30 µM |  |  |  |  | 
COc1cc(Cl)c(Oc2ccccc2Cl)cc1-n1c(=O)cc(C(F)(F)F)[nH]c1=O (racemic) [Example 50, 3-[4-Chloro-5-(2-chlorophenoxy)-2-methoxyphenyl]-6-(trifluoromethyl)pyrimidine-2,4(1H,3H)-dione (rac)] | 7.5e-07 M | 5e-06 M |  |  | 3.6 µM |  |  | 
COc1cc(C#N)c(Oc2ccccc2C)cc1-n1c(=O)cc(-c2ccc(C(F)(F)F)cc2)[nH]c1=O (racemic) [Example 69, 4-{2,6-Dioxo-4-[4-(trifluoromethyl)phenyl]-3,6-dihydropyrimidin-1(2H)-yl}-5-methoxy-2-(2-methylphenoxy)benzonitrile (rac)] | 4.5e-06 M |  |  |  | > 30 µM |  |  | 
COc1cc(C#N)c(Oc2ccccc2C)cc1-n1c(=O)cc(C(N)=O)[nH]c1=O (racemic) [Example 73, 1-[4-Cyano-2-methoxy-5-(2-methylphenoxy)phenyl]-2,6-dioxo-1,2,3,6-tetrahydropyrimidine-4-carboxamide (rac)] | 9e-07 M | 5.9e-06 M |  |  | > 30 µM |  |  | 
COc1cc(C#N)c(Oc2ccccc2C)cc1-n1c(=O)cc(S(C)(=O)=O)[nH]c1=O (racemic) [Example 79, 4-[4-(Methanesulfonyl)-2,6-dioxo-3,6-dihydropyrimidin-1(2H)-yl]-5-methoxy-2-(2-methylphenoxy)benzonitrile (rac)] | 7e-07 M | 4e-06 M | > 30 µM |  |  |  |  | 
COc1cc(C#N)c(Oc2ccccc2C)cc1-n1c(=O)cc(C(F)(F)F)[nH]c1=O (single isomer, unassigned) [Example 5, 4-[2,6-Dioxo-4-(trifluoromethyl)-3,6-dihydropyrimidin-1(2H)-yl]-5-methoxy-2-(2-methylphenoxy)benzonitrile (atrop 1)] |  |  |  |  | 6 µM | 1.13e-07 M |  | 
Cc1ccccc1Oc1cc(-n2c(=O)cc(C(F)(F)F)[nH]c2=O)c(C)cc1C#N (single isomer, unassigned) [Example 8, 4-[2,6-Dioxo-4-(trifluoromethyl)-3,6-dihydropyrimidin-1 (2H)-yl]-5-methyl-2-(2-methylphenoxy)benzonitrile (atrop 1)] |  |  |  |  |  | 1.1e-06 M | 9e-06 M | 6 µM
Cc1ccccc1Oc1cc(-n2c(=O)cc(C(F)(F)F)[nH]c2=O)c(C)cc1C#N (single isomer, unassigned) [Example 9, 4-[2,6-Dioxo-4-(trifluoromethyl)-3,6-dihydropyrimidin-1(2H)-yl]-5-methyl-2-(2-methylphenoxy)benzonitrile (atrop 2)] |  |  |  |  |  | 8e-08 M | 9e-07 M | 1.5 µM
COc1cc(C#N)c(Oc2ccccc2C)cc1-n1c(=O)cc(Br)[nH]c1=O (single isomer, unassigned) [Example 20, 4-[4-Bromo-2,6-dioxo-3,6-dihydropyrimidin-1(2H)-yl]-5-methoxy-2-(2-methylphenoxy)benzonitrile (atrop 1)] | 2.35e-06 M | 2.3e-05 M |  | 27 µM |  |  |  | 
Cc1ccccc1Oc1cc(-n2c(=O)cc(C(F)(F)F)[nH]c2=O)cnc1C#N [Example 47, 5-[2,6-Dioxo-4-(trifluoromethyl)-3,6-dihydropyrimidin-1(2H)-yl]-3-(2-methylphenoxy)pyridine-2-carbonitrile] | 6.5e-07 M | 3.2e-06 M | > 30 µM |  |  |  |  | 
Cc1cccc(C)c1Oc1cc(-n2c(=O)cc(C(F)(F)F)[nH]c2=O)ccc1C#N [Example 48, 2-(2,6-Dimethylphenoxy)-4-[2,6-dioxo-4-(trifluoromethyl)-3,6-dihydropyrimidin-1 (2H)-yl]benzonitrile] | 6.97e-07 M | 4.15e-06 M | 25 µM |  |  |  |  | 
Cc1ccccc1Oc1cc(-n2c(=O)cc(-c3ccccc3)[nH]c2=O)c(F)cc1C#N [Example 49, 4-(2,6-Dioxo-4-phenyl-3,6-dihydropyrimidin-1(2H)-yl)-5-fluoro-2-(2-methylphenoxy)benzonitrile] | 6.98e-07 M | 4.93e-06 M | > 30 µM |  |  |  |  | 
Cc1ccccc1Oc1cc(-n2c(=O)cc(C(F)(F)C(F)(F)F)[nH]c2=O)c(F)cc1C#N [Example 52, 4-[2,6-dioxo-4-(pentafluoroethyl)-3,6-dihydropyrimidin-1(2H)-yl]-5-fluoro-2-(2-methylphenoxy)benzonitrile] | 1.35e-06 M |  | 30 µM |  | 2.95 µM |  |  | 
Cc1cccc(N)c1Oc1cc(-n2c(=O)cc(C(F)(F)F)[nH]c2=O)c(F)cc1C#N [Example 65, 2-(2-Amino-6-methylphenoxy)-4-[2,6-dioxo-4-(trifluoromethyl)-3,6-dihydropyrimidin-1(2H)-yl]-5-fluorobenzonitrile] | 5e-07 M | 5.5e-06 M | > 30 µM |  |  |  |  | 
Cc1ccccc1Oc1cc(-n2c(=O)cc(-c3ccc(C(F)(F)F)cc3)[nH]c2=O)c(F)cc1C#N [Example 68, 4-{2,6-Dioxo-4-[4-(trifluoromethyl)phenyl]-3,6-dihydropyrimidin-1(2H)-yl}-5-fluoro-2-(2-methylphenoxy)benzonitrile] | 2.16e-06 M |  | 9 µM |  | 7.5 µM |  |  | 
Cc1ccccc1Oc1cc(-n2c(=O)cc(C3CC3)[nH]c2=O)c(F)cc1C#N [Example 72, 4-(4-Cyclopropyl-2,6-dioxo-3,6-dihydropyrimidin-1(2H)-yl)-5-fluoro-2-(2-methylphenoxy)benzonitrile] | 2e-06 M | 2.5e-05 M | > 30 µM |  |  |  |  | 
